Experimental data taken from ChEMBL document CHEMBL1146954, “Design and synthesis of 7H-pyrrolo[2,3-d]pyrimidines as focal adhesion kinase inhibitors. Part 1” (Bioorg Med Chem Lett, 2006).

Biological target: Focal adhesion kinase 1 (Homo sapiens, UniProt Q05397)
Experiment: Inhibitory activity against FAK

Sequence of Focal adhesion kinase 1 (Q05397 whole entry): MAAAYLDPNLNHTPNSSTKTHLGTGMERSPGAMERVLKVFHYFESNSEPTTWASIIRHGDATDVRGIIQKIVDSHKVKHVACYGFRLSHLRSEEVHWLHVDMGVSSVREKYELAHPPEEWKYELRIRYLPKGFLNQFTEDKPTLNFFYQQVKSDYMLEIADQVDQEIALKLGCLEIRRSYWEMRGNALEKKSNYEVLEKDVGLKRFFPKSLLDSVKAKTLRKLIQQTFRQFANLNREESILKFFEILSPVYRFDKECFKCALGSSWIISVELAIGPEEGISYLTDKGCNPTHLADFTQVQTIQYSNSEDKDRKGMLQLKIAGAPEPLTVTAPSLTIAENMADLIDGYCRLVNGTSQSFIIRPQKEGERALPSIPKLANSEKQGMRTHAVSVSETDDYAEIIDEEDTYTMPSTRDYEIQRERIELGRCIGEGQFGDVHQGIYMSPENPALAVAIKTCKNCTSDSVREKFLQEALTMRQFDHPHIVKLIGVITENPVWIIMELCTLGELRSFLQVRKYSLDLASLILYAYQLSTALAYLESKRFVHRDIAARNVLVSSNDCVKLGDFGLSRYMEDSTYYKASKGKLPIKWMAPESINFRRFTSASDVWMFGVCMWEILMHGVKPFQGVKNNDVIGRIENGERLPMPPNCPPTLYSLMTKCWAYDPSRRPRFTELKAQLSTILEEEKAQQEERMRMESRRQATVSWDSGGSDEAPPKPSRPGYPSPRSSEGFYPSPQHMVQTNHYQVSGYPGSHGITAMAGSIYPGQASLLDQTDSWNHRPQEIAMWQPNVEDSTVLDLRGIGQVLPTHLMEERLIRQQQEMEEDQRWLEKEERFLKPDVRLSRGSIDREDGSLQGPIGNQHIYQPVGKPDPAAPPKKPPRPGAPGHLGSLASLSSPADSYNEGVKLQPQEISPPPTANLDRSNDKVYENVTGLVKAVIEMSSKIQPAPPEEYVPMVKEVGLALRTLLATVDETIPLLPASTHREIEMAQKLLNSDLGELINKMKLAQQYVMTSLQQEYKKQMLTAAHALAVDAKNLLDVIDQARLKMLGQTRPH

Row | SMILES | IC50 [nM]
1 | COc1cc(Nc2ncc3ccn(-c4ccccn4)c3n2)cc(OC)c1OC | 200
2 | COc1cc(Nc2ncc(Br)c(Nc3ccccn3)n2)cc(OC)c1OC | 100
